Assay [1] deals with HCT116 cells. Nature of the assay: Transwell migration/invasion and wound healing assay, HCT116. The assay is classed as cell-based, human. The note with it: HCT116; 10 μg/ml EpAb2-6 and 10 μM crizotinib; 24 h; vs control IgG; FIG. 7G. The procedure: FIGS. 3A to 3H. EpEX induces the activation of ERK and FAK-AKT signaling pathway. Wild type (WT) or EpCAM knockout (KO) HCT116 cells after EpEX-His treatment. (FIG. 3A) The levels of phosphorylated HGFR, AKT, FAK, GSK3β, ERK, ADAM17, and presenilin 2 were assayed by Western blotting. (FIG. 3B) Colony formation was examined by crystal violet staining. (FIG. 3C) HCT116 cells were treated with TAPI (ADAM17 inhibitor) or DAPT (γ-secretase inhibitor) for 24 hours, and the phosphorylation of HGFR, AKT, and ERK was analyzed by Western blotting, and EpEX protein level in culture medium was examined by immunoprecipitation and Western blotting. (FIG. 3D) HCT116 and HT29 cells were starved for 16 h, then treated with EpEX-His (50 nM) and HGF (0.5 nM) for 15 min. The levels of phosphorylated HGFR, AKT, and ERK were examined by Western blotting. (FIG. 3E) HCT116 cells were starved for 16 h, then treated with 50 nM EpEX-His for 15 min. HGFR inhibitor SU11274 (SU, 10 μM), AKT inhibitor LY294002 (LY, 25 μM), ERK inhibitor U0126 (U0, 20 μM), or FAK inhibitor PF-562271 (PF, 10 μM) were applied 1 h before EpEX treatment. Phosphorylation of AKT, ERK, and FAK was examined by Western blotting. (FIG. 3F) HCT116 cells were starved for 16 h, then treated with 50 nM EpEX, and SU (10 μM), LY (25 μM), U0 (20 μM) or PF (10 μM). Colony formation was examined by crystal violet staining after treatment for 7 days. The relative colony densities are shown. Migration ability was examined by the (FIG. 3G) wound healing assay at the indicated times. (FIG. 3H) The numbers of migration cell was assessed by a Transwell after treatment for 24 h.
FIGS. 4A to 4L. EpEX induces EMT and invasion by stabilizing β-catenin and Snail through decreasing GSK3β activity. (FIG. 4A) The protein expression of EMT markers and regulators was detected by Western blotting in Wild-type (WT) or EpCAM knockout (KO) HCT116 cells after EpEX treatment. (FIG. 4B) Cell invasion was examined by Transwell chamber assay with matrigel. (FIG. 4C) WT or KO HCT116 and HT29 cells were starved for 16 h, then treated with 0.5 nM of HGF with 2% FBS for 24 h. EMT-related protein expression (E-cadherin, vimentin, and Snail) was examined by Western blotting. (FIG. 4D) WT or KO HCT116 and HT29 cells were treated with HGF (0.5 nM) for 24 h. Invasion by HCT116 and HT29 cells was examined by Transwell chamber assay with matrigel. (FIG. 4E) HCT116 and HT29 cells were starved for 16 h, then treated with 0.5 nM of HGF with 2% FBS for 24 h. EMT-related protein expression (E-cadherin, Vimentin, and Snail) was examined by Western blotting. (FIG. 4F) HCT116 and HT29 cells were starved for 16 h, then treated with 0.5 nM of HGF with 2% FBS for 24 h. Cell invasion was assessed by a Transwell assay with matrigel. (FIG. 4G) HCT116 cells after shLuc and shHGFR treatment were treated with 50 nM of EpEX-His. HCT116 cells after shLuc and shHGFR treatment were treated with 50 nM of EpEX-His with 2% FBS for 24 h. EMT-related protein expression (E-cadherin, Vimentin, and Snail) was examined by Western blotting. (FIG. 4H) Cell invasion was examined by Transwell chamber assay with matrigel. (FIG. 4I) Starved HCT116 cells were treated SU (10 μM) for 1 h, followed by treatment with EpEX-His (50 nM) for 24 h. Phosphorylated GSK3β, active-β-catenin, and Snail were detected by Western blotting. (FIG. 4J) HCT116 cells were starved for 16 h, then treated with 50 nM EpEX-His for 24 min. AKT inhibitor LY294002 (25 μM), ERK inhibitor U0126 (20 μM), or PF-562271 (10 μM) were applied 1 h before EpEX treatment. Protein expression of phosphorylated GSK3β and Snail was examined by Western blotting. (FIG. 4K) HCT116 cells were starved for 16 h, then treated with 50 nM EpEX, and SU (10 μM), LY (25 μM), UO (20 μM) or PF (10 μM). Cell invasion was examined by Transwell chamber assay with matrigel. (FIG. 4L) Protein expression was analyzed by Western blotting in EpEX-His (50 nM) treated HCT116 cells after treatment with or without 2 μM GSK3β inhibitor (BIO) for 24 h. […]

Assay [2] relates to HT29 cells. Description: Transwell invasion assay with matrigel, HT29. Type of assay: cell-based, human. The note with it: 10 μg/ml EpAb2-6 and 10 μM crizotinib, 24 h, vs control IgG, FIG. 7G.
Experimental: Cell migration and invasion were assayed with 8-μm pore size Transwell migration chambers (Millicell) without or with 10% matrigel. Cells (1×10^5) were added to the upper chamber in 500 μl serum-free DMEM. Then, 700 μl DMEM containing 10% FBS was added to the lower chamber as a chemoattractant. Migration and invasion were allowed to proceed for 16 h at 37° C. in a standard cell culture incubator. Then, cells were removed from the upper surface of the membranes with cotton swabs, and the cells that had migrated to the lower surface were stained with 0.05% (w/v) crystal violet in 4% paraformaldehyde (in 1×PBS) for 15 min and washed with water. Membranes were dried for 15-20 min before at least four random fields on the membrane examined at high power were counted for each experimental condition.
The subject of assay [3] is HCT116 cells. Nature of the assay: Apoptosis assay, annexin V-FITC/PI double labeling, HCT116. The assay is classed as cell-based, human. The procedure:
(§1) FIGS. 7A to 7G. EpAb2-6 binds EpEX and induces apoptosis by F(ab′)2 and inhibits regulated intramembrane proteolysis (RIP) activation and HGFR signaling. (FIG. 7A) Binding affinity of IgG EpAb2-6 (mouse) and F(ab′)2 to EpEX-His (1 μg/ml) coated overnight was checked using ELISA (OD450). (FIG. 7B) HCT116 cells were treated with 100 μg/ml control IgG, Fc, or F(ab′)2 of EpAb2-6 for 24 h. The apoptotic and necrotic cells were quantified by fluorescein annexin V-FITC/PI double labeling. (FIG. 7C) HCT116 and HT29 cells were treated with 10 μg/ml control IgG, MT201, humanized EpAb2-6 (hEpAb2-6) or mouse hybridoma EbAb2-6 (mEpAb2-6) for 24 h. The apoptotic and necrotic cells were quantified by fluorescein annexin V-FITC/PI double labeling. (FIG. 7D) HCT116 cells were treated with 10 μg/ml control IgG, MT201, hEpAb2-6 or mEpAb2-6 for 16 h, followed by treatment with EpEX-His (50 nM) for 15 min. Levels of phosphorylated HGFR, AKT, and ERK, and (FIG. 7E) RIP proteins ADAM17 and presenilin 2 were examined by Western blotting. Anti-EpCAM antibody and crizotinib coordinately induces apoptosis in colon cancer cells. (FIG. 7F) HCT116 and HT29 cells were treated with 10 μg/ml NMIgG or EpAb2-6 and 4 μM HGFR inhibitor crizotinib for 24 h. The apoptotic and necrotic cells were quantified by fluorescein annexin V-FITC/PI double labeling. (FIG. 7G) HCT116 and HT29 cells were treated with 10 μg/ml NMIgG or EpAb2-6 and 10 μM HGFR inhibitor crizotinib. Cell invasion was assessed by a Transwell assay with matrigel after 24 h.
(§2) Cells were seeded and treated with 10 μg/ml mAb or inhibitor for 6 h; an unrelated mouse myeloma immunoglobulin used at appropriate dilution served as the IgG2a (Invitrogen #02-6200) isotype control. Apoptotic cells were detected using Annexin V-FITC and PI, and were analyzed using a flow cytometer (BD Immmunocytometry Systems). Early apoptosis was measured with the Annexin V-FITC Apoptosis Detection kit II (BD Pharmingen). Late apoptotic nuclei were detected with propidium iodide (PI) staining.

Assay [4] has as its system HT29 cells. Nature of the assay: Apoptosis assay, annexin V-FITC/PI double labeling, HT29. The assay is classed as cell-based, human. The note with it: 10 μg/ml EpAb2-6 and 4 μM crizotinib 24 h, FIG. 7F. The procedure: as §1, §2
A further assay deals with HCT116 or HT29. Nature of the assay: Metastatic and orthotopic animal models of colon cancer, overall statements.

Experimental for HCT116 or HT29: Colon cancer HCT116 or HT29 (5×10^6 cells/mouse) in PBS were injected into 4-6-week-old female NOD/SCID mice through the tail vein. Mice were then randomly assigned to different treatment groups by body weight. After 3 days, antibodies were administered through tail vein injection twice a week for four consecutive weeks. Crizotinib was administered daily by oral gavage for 5 days per week (treatment for four weeks). For the therapeutic study, tumor-bearing mice were treated with isotype control IgG1 (15 mg/kg), crizotinib (20 mg/kg), EpAb2-6 (15 mg/kg), or crizotinib (20 mg/kg) combined with EpAb2-6 (15 mg/kg). Mouse survival rate were measured.
Orthotopic tumor models were created as previously reported (Chen et al., 2020). Briefly, NSCID mice were used for orthotopic implantation of HCT116 cells previously infected with Lenti-luc virus (lentivirus containing luciferase gene). The mice were anesthetized by i.p. injection ofAvertin, 2,2,2-Tribromo-ethanol (Sigma-Aldrich) at a dose of 250 mg/kg. Tumor development was monitored by bioluminescence imaging. For the therapeutic study, tumor-bearing mice were treated with isotype control IgG1 (15 mg/kg), crizotinib (20 mg/kg), EpAb2-6 (15 mg/kg), or crizotinib (20 mg/kg) combined with EpAb2-6 (15 mg/kg). Tumor progression was monitored by quantification of bioluminescence. Mouse survival was also monitored.

For `C[C@@H](Oc1cc(-c2cnn(C3CCNCC3)c2)cnc1N)c1c(Cl)ccc(F)c1Cl` [crizotinib, 3-[(1R)-1-(2,6-dichloro-3-fluorophenyl)ethoxy]-5-(1-piperidin-4-ylpyrazol-4-yl)pyridin-2-amine], the “effect of crizotinib on the inhibitory effect of EpAb2-6 on invasion” value in the assay with HCT116 cells [1] and with HT29 cells [2] was “enhanced the inhibitory effect of EpAb2-6 on invasion” throughout. For the same molecule, the “effect of crizotinib on the apoptotic effects of EpAb2-6” value in the assay on HCT116 cells [3] (10 μg/ml EpAb2-6 and 4 μM crizotinib 24 h, FIG. 7F) is recorded as “enhance the apoptotic effects of EpAb2-6”; in the assay with HT29 cells [4] it was “enhance the apoptotic effects of EpAb2-6”. In the assay with HCT116 cells [3] (discussion statement), the “sensitization of HCT116 cells to antibody-induced apoptosis after crizotinib treatment” value is “sensitized to humanized-EpAb2-6- and EpAb2-6-induced apoptosis”. In the assay with HCT116 or HT29, the survival entry is “poor survival”. Further, in the assay on HCT116 or HT29, the tumor progression entry is on record as “developed significant tumors”.

These data come from patent US20250269018A1, “COMBINED CANCER THERAPY WITH AN EPITHELIAL CELL ADHESION MOLECULE (EPCAM) INHIBITOR AND A HEPATOCYTE GROWTH FACTOR RECEPTOR (HGFR) INHIBITOR” (ACADEMIA SINICA, priority 2021, published 2025).
